The test system of assay [1] is Cyclin A gene expression in HCT 116 cell lines. As to the kind of experiment: Semi-quantitative RT-PCR gene expression of Cyclin A. In kind it is cell-based, Human. As to conditions: for CyclinA expression profile (in words): HCT 116; for Relative gene expression of Cyclin A: control 1.00. The method, then: (§1) HCT-116 cells were trypsinized and added to 1 ml TRIzol and vortexed. Samples were then allowed to stand for 5 min at room temperature. 0.2 ml of chloroform per 1 ml of TRIzol was added. The tube was later stoppered and shaken vigorously for 15 s and was allowed to stand at room temperature for 5 min. The resulting mixture was then centrifuged at 10,000×rpm for 15 min at […]. The upper aqueous phase was transferred to another clean tube followed by the addition of 0.5 ml of isopropanol per 1 ml of TRIzol. The contents were mixed gently by inverting the sample 5 times and incubated at room temperature for 5 min. Further, the tubes were centrifuged at 10,000×rpm for the next 10 min at […]. Later, the supernatant was discarded and the RNA pellet was washed by adding 1 ml of 70% ethanol. Further, the contents were mixed gently by inverting the sample for few times. It was again centrifuged for 5 min at 14,000×rpm at […]. In the later step, the supernatant was discarded by inverting the tube on a clean tissue paper. Later, the pellet was dried by incubating in a […] for 5 min at 55 °C. The pellet was then resuspended in 25 µL of DEPC (Diethyl pyro carbonate) treated water.
(§2) A semi-quantitative reverse transcriptase polymerase chain reaction (RT-PCR) was carried out using Techno Prime system to determine the levels of β-actin and CDK-2 and CyclinA mRNA expression. The cDNA was synthesized from 2 µg of RNA using the Verso cDNA synthesis kit (Thermo Fischer Scientific) with oligo dT (deoxy thymine) primer according to the manufacturer’s instructions. The reaction volume was set to 20 μL and the cDNA synthesis was performed at 42 °C for 60 min followed by RT inactivation at 85 °C for 5 min (Murakami [1996]).
(§3) The PCR mixture (final volume of 20 µL) contains 1 µL of cDNA, 10 µL of Red Taq Master Mix 2× (Ampliqon) and 1 µM of each complementary primer specific for CDK2 and CyclinA and β-actin (internal control) sequence. The samples are denatured at 95 °C for 5 min and amplified using 35 cycles of 95 °C for 30 s then again at 55 °C for 30 s and 72 °C for 1 min for β-actin; the […] annealing was finally set to 56 °C followed by the final elongation at 72 °C for 10 min. […] Ten microliters of the final amplification product are run on a 2% ethidium-stained agarose gel and photographed. Quantification of the results could be accomplished by measuring the optical density of the bands, using the computerized imaging program Image J. The values were normalized to β-actin intensity levels (Bookout and Mangelsdorf [2003]).

Assay [2] has as its system CDK2 gene expression in HCT 116 cell lines. Briefly: Semi-quantitative RT-PCR gene expression of CDK2. It counts as cell-based, Human. As to conditions: for Relative gene expression of CDK2: control 1.00. The method, then:
as §1, §2, §3

A further assay concerns HCT 116. As to the kind of experiment: MTT cytotoxicity assay on HCT 116. As to conditions: 24 h, read-out: Inhibition of cell proliferation, IC50, HCT 116. It counts as cell-based, Human. The method, then:
The monolayer cell culture was trypsinized and the cell count was adjusted to 5.0 × 10^5 cells/ml using respective media containing 10% FBS. To each well of the 96-well microtiter plate, 100 µL of the diluted cell suspension (50,000cells/well) was added. After 24 h, when a partial monolayer was formed, the supernatant was flicked off, the monolayer was then washed once again with the medium and 100 µL of different test concentrations of test drugs were added on to the partial monolayer in microtiter plates. The plates were then incubated at 37 °C for 24 h in 5% CO2 atmosphere. After incubation, the test solutions in the wells were discarded and 100 µL of MTT (5 mg/10 ml of MTT in PBS) was added to each well. The plates were then incubated for 4 h at 37 °C in 5% CO2 atmosphere. The supernatant was then removed and 100 µL of DMSO was added and the plates were gently shaken to solubilize the formed formazan. The absorbance was measured using a microtiter plate reader at a wavelength of 590 nm. The percentage growth inhibition was thus calculated using the following formula and the concentration of the test drug required to inhibit the cell growth by 50% (IC50) values is generated from the dose–response curves for each one of the cell lines (Meerloo et al. [2011]).
The test compounds were screened for their in vitro cytotoxicity by MTT assay against two cancer cell lines, namely MCF-7, HCT-116 and normal epithelial kidney cells (Vero). Doxorubicin was used as a reference standard.
A general note: Formazan colour is commonly taken as a measure of viable cells.

Assay [3] is described as follows: ABTS.+ radical scavenging assay. The method, then: The assay was performed in a 96-well plate by serial dilution method. A 2 mM ABTS^.+ working solution was prepared in a phosphate buffer (Zheleva-Dimitrova et al [2010]).To this, 200 μL of aqueous potassium per sulfate (70 mM) solution was added and the solution was incubated for 24 h in the dark at room temperature to develop a blue-green color. To 30 μL of ABTS^.+ working solution, 50 μL of different concentrations (3.9–1000 μM) of the test sample solution and 170 μL of phosphate buffer (pH-7.4) were added in a well. The plate was then incubated in the dark at room temperature for 10 min. Then absorbance was measured at 690 nm using Elisa reader. Quercetin and ascorbic acid were used as standards. The percentage scavenging of ABTS^.+ was calculated using the formula, (Control Absorbance–Test Absorbance)*100/(Control Absorbance) and the anti-oxidant activity was expressed in terms of IC50 value.

Turning to `COc1ccc(/C=C2\Oc3c(c(OC)cc(OC)c3C3=CCN(C(C)C)CC3)C2=O)cc1OC` [NISOA4], in assay [1] (12.5 μM), the “Band intensity Of PCR Amplicon Of genes, Cyclin A” value is reported as 16,245.903; the “Normalized (Cyclin A to β-actin)” value worked out at 0.64; the “CyclinA expression profile (in words)” value was “very little or no reduction”; the “Relative gene expression of Cyclin A” value worked out at 1.00. Also, in assay [1] (25 μM), the “Band intensity Of PCR Amplicon Of genes, Cyclin A” value is reported as 10,798.368; the “Normalized (Cyclin A to β-actin)” value is 0.43; the “CyclinA expression profile (in words)” value was “clear decrease”; the “Relative gene expression of Cyclin A” value worked out at 0.67. In addition, in assay [2] (12.5 μM), the “Band intensity of PCR amplicon of genes, CDK2” value was 16,091.61; the “Normalized (CDK2 to β-actin)” value came to 0.63; the “Relative gene expression of CDK2” value is given as 0.59. The “expression of CDK2 (in words)” value in assay [2] (12.5 μM and 25 μM, HCT 116) is recorded as “clear dose-dependent decrease”. In addition, in assay [2] (25 μM), the “Band intensity of PCR amplicon of genes, CDK2” value is 13,190.418; the “Normalized (CDK2 to β-actin)” value turned out to be 0.52; the “Relative gene expression of CDK2” value came out at 0.49. In the assay with HCT 116, the IC50 stood at 21.2 µM. The IC50 in assay [3] was determined as 127 ± 12.5 µM.

These data come from paper PMC9440176, “Novel benzylidene benzofuranone analogues as potential anticancer agents: design, synthesis and in vitro evaluation based on CDK2 inhibition assays” (3 Biotech, 2022).
